Active and inactive are the calls of the source. No rule for the calls is given here.
Tested on: HEK-293T NF-kB luciferase reporter, luminescence counterscreen
Experiment: NF-kB reporter suppression in HEK-293T cells – luminescence, B-cell screen hits, counter-screen for BCR NF-kB inhibitor project, dose response (AID 489022)

| SMILES | IC50 |
| --- | --- |
| COc1ccc(/C=C\C(=O)O[C@@H]2C(O)C(O[C@@H]3OC(C)[C@H](O[C@@H]4OCC(O[C@H]5O[C@H](CO)[C@@H](O)C(O)C5O)C(O)C4O)C(O)C3O)[C@H](OC(=O)[C@]34CCC(C)(C)C[C@@H]3C3=CCC5[C@@]6(C)CC(O)C(O[C@@H]7OC(CO)C(O)[C@H](O)[C@H]7O)[C@@](C)(C(=O)O)C6CC[C@@]5(C)[C@]3(CO)CC4)O[C@H]2C)cc1 (stereo not given in full) | 45.7 µM (inactive) |
| COc1ccc(NS(=O)(=O)c2cc(NC(=O)c3cc(=O)c4ccccc4o3)ccc2OC)cc1 | > 80 µM (inactive) |
| Cc1cc2ccccn2c1C(=O)c1ccc(NN)c([N+](=O)[O-])c1 | 30.5 µM (inactive) |
| O=C1CCC2S/C(=C/Nc3ccc(C(F)(F)F)cc3)C(=O)N12 (stereo not given) | 3.77 µM |
| CC(C)OCCCNC(=O)c1c(N)n(/N=C/c2ccccn2)c2nc3ccccc3nc12 | > 80 µM (inactive) |

Source: PubChem BioAssay AID489022 (Sanford-Burnham Center for Chemical Genomics, 2010)
